Measured values from PubChem BioAssay AID1963825 (Molecular Pharmacology Branch, DTP, NCI, 2024).

Test: Anticancer human tumor 997537-175-T-J1-PDC patient-derived colon adenocarcinoma cell line growth inhibition [POLQ]
Conditions: 997537-175-T-J1-PDC complex spheroid viability, combination with POLQ inhibitors; for IC50: curve of first compound; for viability, T/C: stronger effect = lower value
Procedure, shortened: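 Patient-derived tumour cells were co-cultured with HUVEC and mesenchymal stem cells as multicellular spheroids at 37 °C. They were treated with POLQ inhibitors (novobiocin, ART-558, RP6685) alone or combined with other agents. Top concentrations were at or near clinical Cmax (otherwise 10 microM; SN-38 at 1 microM), decreasing in half-log steps.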
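Also: luminescence signal used as a surrogate for viable cells; spheroids exposed to drugs for seven days before readout.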

Structure (SMILES): C=CC(=O)N1CCN(c2nc(=O)n(-c3c(C)ccnc3C(C)C)c3nc(-c4c(O)cccc4F)c(F)cc23)C(C)C1 (configuration not stated) + Nc1ccc(C#CCN(C(=O)Cc2ncc(C(F)(F)F)cc2C(F)(F)F)c2ccc(F)cc2)nn1
- IC50 (second compound 0.0316 µM): > 10 µM
- IC50 (second compound 0.1 µM): > 10 µM
- IC50 (second compound 0.316 µM): > 10 µM
- IC50 (second compound 1 µM): > 10 µM
- IC50 (second compound 3.16 µM): > 10 µM
- IC50 (second compound 10 µM): > 10 µM
- viability, T/C (second compound 0.0316 µM, first compound 0.0316 µM): 106%
- viability, T/C (second compound 0.0316 µM, first compound 0.1 µM): 97.1%
- viability, T/C (second compound 0.0316 µM, first compound 0.316 µM): 95.4%
- viability, T/C (second compound 0.0316 µM, first compound 1 µM): 108%
- viability, T/C (second compound 0.0316 µM, first compound 3.16 µM): 93.8%
- viability, T/C (second compound 0.0316 µM, first compound 10 µM): 100%
- viability, T/C (second compound 0.1 µM, first compound 0.0316 µM): 103%
- viability, T/C (second compound 0.1 µM, first compound 0.1 µM): 91.1%
- viability, T/C (second compound 0.1 µM, first compound 0.316 µM): 102%
- viability, T/C (second compound 0.1 µM, first compound 1 µM): 96.7%
- viability, T/C (second compound 0.1 µM, first compound 3.16 µM): 111%
- viability, T/C (second compound 0.1 µM, first compound 10 µM): 107%
- viability, T/C (second compound 0.316 µM, first compound 0.0316 µM): 96.6%
- viability, T/C (second compound 0.316 µM, first compound 0.1 µM): 102%
- viability, T/C (second compound 0.316 µM, first compound 0.316 µM): 103%
- viability, T/C (second compound 0.316 µM, first compound 1 µM): 101%
- viability, T/C (second compound 0.316 µM, first compound 3.16 µM): 90.9%
- viability, T/C (second compound 0.316 µM, first compound 10 µM): 94%
- viability, T/C (second compound 1 µM, first compound 0.0316 µM): 102%
- viability, T/C (second compound 1 µM, first compound 0.1 µM): 111%
- viability, T/C (second compound 1 µM, first compound 0.316 µM): 109%
- viability, T/C (second compound 1 µM, first compound 1 µM): 97.2%
- viability, T/C (second compound 1 µM, first compound 3.16 µM): 96.9%
- viability, T/C (second compound 1 µM, first compound 10 µM): 97.6%
- viability, T/C (second compound 3.16 µM, first compound 0.0316 µM): 96.3%
- viability, T/C (second compound 3.16 µM, first compound 0.1 µM): 106%
- viability, T/C (second compound 3.16 µM, first compound 0.316 µM): 103%
- viability, T/C (second compound 3.16 µM, first compound 1 µM): 96.8%
- viability, T/C (second compound 3.16 µM, first compound 3.16 µM): 106%
- viability, T/C (second compound 3.16 µM, first compound 10 µM): 98.2%
- viability, T/C (second compound 10 µM, first compound 0.0316 µM): 101%
- viability, T/C (second compound 10 µM, first compound 0.1 µM): 106%
- viability, T/C (second compound 10 µM, first compound 0.316 µM): 104%
- viability, T/C (second compound 10 µM, first compound 1 µM): 95.3%
- viability, T/C (second compound 10 µM, first compound 3.16 µM): 97.6%
- viability, T/C (second compound 10 µM, first compound 10 µM): 90.8%
